“And” between values parts separate entries of the source, which are not always exact repeats. Equal values may be shown once. Read-outs that look alike come from different tables or passages of the source.
Legend:
[1] = test system: intracellular amastigotes of T. cruzi; assay: Intracellular T. cruzi in U-2 OS cells; type: cell-based, T. cruzi (strain Y); conditions: for selectivity index [SI vs. THP-1], T. cruzi: CC50 THP-1 / EC50 T. cruzi; for selectivity index [SI vs. U-2 OS], T. cruzi: CC50 U-2 OS / EC50 T. cruzi; for EC50: read-out: Cytotoxicity EC50 T. cruzi, intracellular amastigotes in U-2 OS, 72 h
[2] = test system: intracellular amastigotes of L. donovani; assay: Intracellular L. donovani in THP-1 cells; conditions: for selectivity index [SI vs. THP-1], L. donovani: CC50 THP-1 / EC50 L. donovani
TcTryS = target: T1, TcTryS (Trypanosoma cruzi, UniProt Q9GT49); assay: TryS inhibition assay; type: biochemical; conditions: for % TryS inhibition at 25 μM, T. cruzi: mean ± SD, NA = not active (inhibition ≤ 0.0 ± 5.0%); for IC50: IC50 T. cruzi TryS, 1 h pre-incubation, DRC, values italic and bold in Table 1
T1 sequence (Q9GT49 1-647): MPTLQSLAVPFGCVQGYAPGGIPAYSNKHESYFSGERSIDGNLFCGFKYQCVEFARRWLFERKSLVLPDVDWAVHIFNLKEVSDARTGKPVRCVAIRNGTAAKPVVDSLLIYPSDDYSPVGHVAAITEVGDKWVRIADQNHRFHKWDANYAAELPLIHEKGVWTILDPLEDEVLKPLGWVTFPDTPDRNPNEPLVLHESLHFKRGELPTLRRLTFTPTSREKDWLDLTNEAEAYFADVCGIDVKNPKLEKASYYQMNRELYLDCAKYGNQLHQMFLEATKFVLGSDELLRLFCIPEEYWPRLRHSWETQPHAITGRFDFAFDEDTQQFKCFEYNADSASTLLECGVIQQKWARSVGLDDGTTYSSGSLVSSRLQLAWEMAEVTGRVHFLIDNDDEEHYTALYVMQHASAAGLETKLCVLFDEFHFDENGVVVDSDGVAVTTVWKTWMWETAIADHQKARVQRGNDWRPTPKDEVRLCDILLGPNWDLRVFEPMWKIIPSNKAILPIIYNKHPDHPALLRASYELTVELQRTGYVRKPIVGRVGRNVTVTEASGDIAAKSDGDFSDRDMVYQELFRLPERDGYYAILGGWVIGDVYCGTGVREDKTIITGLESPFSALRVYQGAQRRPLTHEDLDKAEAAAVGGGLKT

bloodstream T. brucei = assay: Cytotoxicity against bloodstream T. brucei; type: cell-based, T. brucei (strain 427, cell line 449); conditions: CC50 THP-1 / EC50 T. brucei
[3] = test system: redox biosensor hGrx1-roGFP2 in bloodstream T. b. brucei; assay: Redox assay with hGrx1-roGFP2 reporter cell line; type: cell-based, T. brucei brucei (strain 427, cell line 449)
TbTryS [4] = assay: Time-dependent inhibition assay; type: biochemical, Trypanosoma brucei; conditions: n = 6
TbTryS [5] = assay: Dilution and reduction-based; type: biochemical, Trypanosoma brucei; conditions: Ebselen 10 µM 1 h, n = 6
TbTryS [6] = type: biochemical, Trypanosoma brucei; conditions: 1 h, n = 8; for TryS inhibition ± SD, mass spectrometry sample B: IAM 15 mM, no Ebselen
LiTryS = target: T2, LiTryS (Leishmania infantum, UniProt A4I2Z3); assay: TryS inhibition assay; type: biochemical; conditions: mean ± SD, NA = not active (inhibition ≤ 0.0 ± 5.0%)
T2 sequence (A4I2Z3 1-652): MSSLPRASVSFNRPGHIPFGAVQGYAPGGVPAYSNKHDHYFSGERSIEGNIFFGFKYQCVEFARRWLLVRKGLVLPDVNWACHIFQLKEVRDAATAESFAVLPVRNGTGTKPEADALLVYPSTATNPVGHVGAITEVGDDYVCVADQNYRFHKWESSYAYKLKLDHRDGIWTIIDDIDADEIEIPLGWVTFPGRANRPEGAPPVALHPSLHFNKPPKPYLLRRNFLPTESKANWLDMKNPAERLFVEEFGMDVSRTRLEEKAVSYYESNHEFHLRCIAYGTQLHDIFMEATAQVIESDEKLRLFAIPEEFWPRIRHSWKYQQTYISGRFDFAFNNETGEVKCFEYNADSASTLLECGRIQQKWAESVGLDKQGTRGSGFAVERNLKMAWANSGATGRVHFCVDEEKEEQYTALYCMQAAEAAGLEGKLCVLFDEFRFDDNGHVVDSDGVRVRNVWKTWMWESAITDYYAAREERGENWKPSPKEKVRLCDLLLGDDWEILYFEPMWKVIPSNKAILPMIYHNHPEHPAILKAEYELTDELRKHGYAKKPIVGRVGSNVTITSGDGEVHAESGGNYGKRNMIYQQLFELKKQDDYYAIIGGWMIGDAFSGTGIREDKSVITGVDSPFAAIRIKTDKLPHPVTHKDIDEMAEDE

[7] = target: T3, TryS from Trypanosoma brucei (TbTryS) (Trypanosoma brucei brucei, UniProt Q586P2); assay: TryS inhibition assay; type: biochemical; conditions: mean ± SD, NA = not active (inhibition ≤ 0.0 ± 5.0%)
T3 sequence (Q586P2 1-627): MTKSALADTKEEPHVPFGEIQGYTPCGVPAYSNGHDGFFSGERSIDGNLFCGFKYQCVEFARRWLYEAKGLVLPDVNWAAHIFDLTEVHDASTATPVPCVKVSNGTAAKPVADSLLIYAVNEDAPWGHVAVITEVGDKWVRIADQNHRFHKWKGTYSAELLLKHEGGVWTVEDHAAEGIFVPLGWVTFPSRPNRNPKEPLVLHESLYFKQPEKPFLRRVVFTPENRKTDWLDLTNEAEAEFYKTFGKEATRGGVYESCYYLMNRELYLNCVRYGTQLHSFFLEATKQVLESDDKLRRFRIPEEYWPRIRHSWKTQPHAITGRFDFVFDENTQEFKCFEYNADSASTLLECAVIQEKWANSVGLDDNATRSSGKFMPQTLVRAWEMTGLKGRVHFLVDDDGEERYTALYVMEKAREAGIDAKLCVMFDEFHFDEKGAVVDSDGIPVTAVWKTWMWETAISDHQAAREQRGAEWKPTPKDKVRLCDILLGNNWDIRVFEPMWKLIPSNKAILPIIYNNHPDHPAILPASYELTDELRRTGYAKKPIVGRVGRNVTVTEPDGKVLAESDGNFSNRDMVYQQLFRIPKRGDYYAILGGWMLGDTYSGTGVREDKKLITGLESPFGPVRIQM

NC(Cc1cc(O)c(O)cc1O)C(=O)O (racemic) [Compound 3, 6-Hydroxy-DL-DOPA]
selectivity index [SI vs. THP-1], T. cruzi [1]: > 2.7
selectivity index [SI vs. U-2 OS], T. cruzi [1]: 2.7
EC50 [1]: 34 µM and ~34 µM

C[C@@H]1[C@H](O)[C@@H](C)/C=C/C=C/C=C/C=C/C=C/C=C/C=C/[C@H](O[C@@H]2O[C@H](C)[C@@H](O)[C@H](N)[C@@H]2O)C[C@@H]2O[C@](O)(C[C@@H](O)C[C@@H](O)[C@H](O)CC[C@@H](O)C[C@@H](O)CC(=O)O[C@H]1C)C[C@H](O)[C@H]2C(=O)O [Amphotericin B]
selectivity index [SI vs. THP-1], L. donovani [2]: > 22

O=C(Cn1ccnc1[N+](=O)[O-])NCc1ccccc1 [Benznidazole]
EC100 ([1]; reference drug concentration used in T. cruzi assay): 400 µM

O=C(O)C1=CC(=C(c2ccc(O)c(C(=O)O)c2)c2ccc(O)c(C(=O)O)c2)C=CC1=O [Compound 1, Aurintricarboxylic acid]
inhibition at 25 µM (TcTryS; read-out: % TryS inhibition at 25 μM, T. cruzi): 5.5 ± 2.8%

O=C(O)c1cc[c]([Hg][Cl])cc1 [Compound 2, 4-Chloromercuribenzoic acid]
% TryS inhibition at 25 μM, T. cruzi (TcTryS): 32.0 ± 9.7%

O=c1c2ccccc2[se]n1-c1ccccc1 [Compound 5, Ebselen]
IC50 (TcTryS): 13.8 ± 1.5 µM
selectivity index [SI vs. THP-1], T. brucei (bloodstream T. brucei): 11
selectivity index [SI vs. THP-1], T. cruzi [1]: > 36
selectivity index [SI vs. U-2 OS], T. cruzi [1]: 2.4
EC50 [1]: 2.8 ± 0.1 µM
oxidation of the biosensor ([3]; 18 µM (2-fold its EC50), 4 h, reverted by DTT 1 mM 20 min): 48%
TryS inhibition ± SD, time-dependent assay, sample A (TbTryS [4]; Ebselen 5 µM pre-incubated 1 h with TbTryS, reaction started with MM): 43.6 ± 4.5%
TryS inhibition ± SD, time-dependent assay, sample C (TbTryS [4]; Ebselen 5 µM, no pre-incubation): 1.8 ± 4.2%
TryS inhibition ± SD, irreversible inhibition assay, sample A (TbTryS [5]; buffer exchanged, DTT 5 mM 30 min): 89 ± 8.5%
TryS inhibition ± SD, irreversible inhibition assay, sample B (TbTryS [5]; buffer exchanged, no DTT): 97.0 ± 5.0%
TryS inhibition ± SD, irreversible inhibition assay, sample C (TbTryS [5]; no buffer exchange, no DTT): 100 ± 9%
TryS inhibition ± SD, mass spectrometry sample A (TbTryS [6]; Ebselen 20 µM): 100 ± 7%
TryS inhibition ± SD, mass spectrometry sample A (value in parenthesis) (TbTryS [6]; Ebselen 50 µM): 96 ± 8%
EC50 ([2]; Leishmania donovani, THP-1, 96 h, read-out: Cytotoxicity EC50 L. donovani): > 100 µM

C[n+]1cc2c3c(ccc2c2ccc4cc5c(cc4c21)OCO5)OCO3 [Compound 6, Sanguinarine chloride]
IC50 (TcTryS): 40 ± 1.2 µM
selectivity index [SI vs. THP-1], T. cruzi [1]: 9.5
selectivity index [SI vs. U-2 OS], T. cruzi [1]: 1.3
EC50 [1]: 0.37 ± 0.11 µM
selectivity index [SI vs. THP-1], L. donovani [2]: 2

Clc1ccc(C(c2ccc(Cl)cc2)n2cc[n+](CC(OCc3ccc(Cl)cc3Cl)c3ccc(Cl)cc3Cl)c2)cc1 (stereo not shown) [Compound 7, Calmidazolium chloride]
IC50 (TcTryS): 2.7 ± 0.5 µM
selectivity index [SI vs. U-2 OS], T. cruzi [1]: 1.1
EC50 [1]: 1.6 ± 0.1 µM
effect on parasites at 2× EC50 in redox assay ([3]; 2× EC50, 4 h): massive cell death

N=C1Sc2ccccc2C2=NCCCN12 [Compound 9, PD 404,182]
% TryS inhibition at 25 μM, T. cruzi (TcTryS): 10.9 ± 5.6%
% TryS inhibition at 25 μM, L. infantum (LiTryS): 8.9 ± 5.9%

Cl.Nc1nc(NCC2CCC(CNS(=O)(=O)c3cccc4ccccc34)CC2)nc2ccccc12 (stereo not shown) [Compound 11, CGP 71683 hydrochloride]
% TryS inhibition at 25 μM, T. brucei [7]: 14.4 ± 8.2%
% TryS inhibition at 25 μM, T. cruzi (TcTryS): 34.7 ± 7.6%
selectivity index [SI vs. THP-1], L. donovani [2]: 1.1

CCCC[P+](CCCC)(CCCC)Cc1ccc(NC(=O)[C@H](Cc2ccc3ccccc3c2)NC(=NC2CCCCC2)NC2CCCCC2)cc1.Cl.[Cl-] [Compound 13, WIN 64338 hydrochloride]
% TryS inhibition at 25 μM, T. brucei [7]: 9.2 ± 7.4%
% TryS inhibition at 25 μM, T. cruzi (TcTryS): 25.9 ± 6.5%
% TryS inhibition at 25 μM, L. infantum (LiTryS): 70.9 ± 6.8%
selectivity index [SI vs. THP-1], L. donovani [2]: 1.9

O=C(CCc1c(-c2ccc(F)cc2)[nH]c2ccc(F)cc12)N1CCN(c2ccncc2)CC1 [Compound 14]
% TryS inhibition at 25 μM, T. cruzi (TcTryS): 7.1 ± 4.0%
% TryS inhibition at 25 μM, L. infantum (LiTryS): 16.8 ± 17.9%
selectivity index [SI vs. THP-1], T. brucei (bloodstream T. brucei): 11

Cc1nc(C(=O)N2CCCC2c2ccc(F)c(F)c2)c(=O)[nH]c1C (stereo not shown) [Compound 18]
% TryS inhibition at 25 μM, L. infantum (LiTryS): 28.5 ± 11.1%

CCN(CC)C(=O)COC(=O)c1c(NC(C)=O)sc2c1CCCC2 [Compound 19]
% TryS inhibition at 25 μM, T. cruzi (TcTryS): 13.3 ± 3.3%
selectivity index [SI vs. THP-1], T. brucei (bloodstream T. brucei): > 4

O=C1Cc2cc(-c3csc(NCCc4cccs4)n3)cc3c2N1CCC3 [Compound 22]
% TryS inhibition at 25 μM, T. cruzi (TcTryS): 12.9 ± 6.1%
% TryS inhibition at 25 μM, L. infantum (LiTryS; listed as 46, 25 µM): 74%

NC(=O)CI [IAM, iodoacetamide]
TryS inhibition ± SD, mass spectrometry sample B (TbTryS [6]): 20 ± 9%
TryS inhibition ± SD, mass spectrometry sample B (TbTryS [6]; listed as iodoacetamide): negligible effects on TryS activity

From article PMC8942522 (Journal of Enzyme Inhibition and Medicinal Chemistry, 2022)
